According to PMC12656849 (Viruses, 2025):
Where a name gives a salt, the structure may show the parent alone.

Columns and labels:
MPXV H1 [1] = target: T1, MPXV H1 (Monkeypox virus, UniProt A0A7H0DN78); assay: biochemical
VARV H1 = settings: cited from earlier work
MPXV = settings: cited from earlier work
MPXV H1 [2] = target: T1, MPXV H1; type: biochemical; settings: read-out: Michaelis constant (Km); pH 6.5
mpox = settings: in vivo; cited from earlier work

T1 sequence (A0A7H0DN78 whole entry, looked up): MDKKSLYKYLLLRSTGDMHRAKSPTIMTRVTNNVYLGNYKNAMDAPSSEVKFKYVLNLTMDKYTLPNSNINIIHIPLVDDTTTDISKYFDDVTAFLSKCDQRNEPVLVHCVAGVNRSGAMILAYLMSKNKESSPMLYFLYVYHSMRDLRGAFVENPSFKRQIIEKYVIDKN

SMILES	IC50 (MPXV H1 [1])	cytotoxicity (in words) (HeLa cells)	further results
CC(C)(C)C(=O)Nc1ccc2c(c1)C(=O)C(=O)c1ccccc1-2 [Compound 35, SF1670]	154 ± 12 nM		
N#CSc1cc(SC#N)c(N)nc1N [Compound 41, PR619]	176 ± 7 nM	particularly low cytotoxicity	
CC1(C)CCC2=C(O1)c1ccccc1C(=O)C2=O [Compound 45, Beta-lapachone]	348 ± 17 nM	particularly low cytotoxicity	
O=C1C=C(Cl)C(=O)c2ccccc21 [Compound 47, 2-Chloro-1,4-naphthoquinone]	837 ± 56 nM	particularly low cytotoxicity	
Cl.Oc1cccc(O)n1 [Compound 57, 2,6-Dihydroxypyridine hydrochloride]	911 ± 64 nM	particularly low cytotoxicity	
O=C1C(=O)c2ncccc2-c2cccnc21 [Compound 59, Phanquinone]	241 ± 7 nM		
CN(C)CCNc1nc2cc(O)ccc2c2c1C(=O)c1ccccc1-2 [Compound 68, TAS-103 (dihydrochloride)]	865 ± 16 nM	substantial cytotoxicity	
CC(=O)c1cc2c(o1)C(=O)c1ccccc1C2=O [Compound 75, Napabucasin]	957 ± 40 nM	substantial cytotoxicity	
CC(C)NC1=CC=CNC1N1CCN(C(=O)c2cc3cc(NS(C)(=O)=O)ccc3[nH]2)CC1 (stereo not shown) [Compound 88, Delavirdine (mesylate)]	987 ± 48 nM	particularly low cytotoxicity	
Cn1cccc1/C=C1\C(=O)NC(=O)c2ccccc21 [Compound 89, BYK204165]	794 ± 46 nM	particularly low cytotoxicity	
Cc1coc2c1C(=O)C(=O)c1c-2ccc2c1CCCC2(C)C [Compound 106, Tanshinone IIA]	531 ± 19 nM		
COCCn1c2c([n+](Cc3cnccn3)c1C)C(=O)c1ccccc1C2=O [Compound 108, YM155]	826 ± 65 nM	substantial cytotoxicity	
CC1=CC(=O)c2c(O)cccc2C1=O [Compound 109, Plumbagin]	874 ± 24 nM	particularly low cytotoxicity	
Cc1c(S(=O)(=O)O)oc2c1C(=O)C(=O)c1c-2ccc2c1CCCC2(C)C [Compound 111, Tanshinone IIA sulfonate sodium]	287 ± 10 nM		
COc1cc2c3c(c1OC)-c1ccccc1C[C@H]3N(C)CC2 [Compound 112, Nuciferine]	752 ± 9 nM		
Nc1cc(N)c(N)cc1N [Compound 118, 1,2,4,5-Benzenetetramine tetrahydrochloride]	333 ± 30 nM		
COc1ccc2c(c1OC)CC1c3c(cc4c(c3-2)OCO4)CCN1C (stereo not shown) [Compound 122, Crebanine]	229 ± 21 nM		
COc1cc2c3c(cc4ccccc4c3c1OC)N(C)CC2 [Compound 123, Dehydronuciferine]	356 ± 25 nM	particularly low cytotoxicity	
CC(C)(c1ccc(NS(=O)(=O)C(F)(F)F)cc1)c1ccc(C(C)(C)c2ccc(NS(=O)(=O)C(F)(F)F)cc2)cc1 [PTP inhibitor IV]	18900 nM		potency of VARV H1 inhibition (VARV H1): low-micromolar potency
OC(c1cc(C(F)(F)F)nc2c(C(F)(F)F)cccc12)C1CCCCN1 (stereo not shown) [mefloquine]			inhibition of MPXV (MPXV): inhibit MPXV
O=[N+]([O-])c1ccc(OP(=O)(O)O)cc1 [pNPP, p-nitrophenyl phosphate]			Km (MPXV H1 [2]): 1500 µM
O=C(NN1C(=O)[C@@H]2[C@@H]3C=C[C@@H]([C@H]4C[C@@H]34)[C@@H]2C1=O)c1ccc(C(F)(F)F)cc1 [tecovirimat]			mpox symptom duration compared with placebo (mpox): did not shorten
